# Test results as given in US7351744B2, “Naphthalene derivatives as termite repellents and toxicants” (Board of Supervisors of Louisiana State University and …, priority 2003, dated 2008).
# System: C. formosanus workers and soldiers
# Test: Topical application toxicity assay
# Format: in vivo, Coptotermes formosanus
# Protocol: Dose-mortality data were analyzed using probit analysis as adapted for PC use (POLO-PC), which automatically corrected for control mortality using Abbott's transformation. See, e.g., R. M Russell et al., “POLO: a new computer program for probit analysis,” Bull. Entomol. Soc. Am., vol. 23, pp. 209-213 (1977); and LeOra Software, “POLO-PC, a user's guide to probit analysis or logit analysis” (1987). The LD50s of workers and soldiers from four tested colonies (y) were plotted against the average weight of tested termites (x) to establish a linear regression equation and conduct correlation analyses. Mean survival, food consumption and tunnel areas were compared among treatments using analysis of variance (ANOVA), followed by least significant difference procedures. See, SAS Institute, SAS/STAT User's Guide: version 8, SAS Institute, Inc., Cary, N.C. (1999). In two-choice assays using either treated filter paper or treated sand, the parameters measured in the two lateral sides of each treatment were compared using paired t-tests. All data were judged at α=0.05.
# Acute toxicity of 2′-acetonaphthone was bioassayed using doses that ranged from 1.25 to 20 ug/termite. At stock solution of 2′-acetonaphthone was prepared ([…]). Dilutions were made by taking aliquots from the stock solution (62.5, 125, 250, 375, 500, 750, and 1000 μl), and adjusting each volume to 2 ml with acetone. A group of 20 workers or soldiers (from colonies BS, WB, E and CR) were placed in a Petri dish (6 cm×1.5 cm) and chilled on top of an ice brick (30.32 cm×17.78 cm×3.81 cm; IceBerg, Mid-Lands Chemical Company, Inc., Miami, Fla.) to slow their movement. Each termite was treated with a topical dose in 0.2 μl acetone to the dorsum of the mesothorax using a Hamilton PB 600 Repeating Dispenser equipped with a 10 μl syringe (Hamilton, Reno, Nev.). The experimental termites were treated with doses equivalent to 1.25, 2.50, 5.0, 7.5, 10.0, 15.0, and 20.0 μg/termite. Control termites were dosedwith only 0.2 μl acetone. Five replicates, each with 20 workers or 20 soldiers, were used for each dose and control. For each replicate, termites were maintained in a plastic container (5.5 cm×3.7 cm, Pioneer Pckaging Co., North Dixon, Ky.), each provided with a filter paper (Whatman #2, 55 mm diameter) wetted with 250 μl double distilled water (DDH20). The containers were covered with lids, and kept for 2 days at room temperature (26-28° C.). Daily mortality in each dish was recorded. Termites were considered dead if unable to right themselves when prodded with a fine paint brush.
smiles,measurement,setting,value
CC(=O)c1ccc2ccccc2c1 [2′-acetonaphthone],LD50 (95% CL),"colony BS, 24 hours, Soldier",3.24 (2.27-4.24) μg/termite
same,LD90 (95% CL),"colony BS, 24 hours, Soldier",13.60 (8.86-15.01) μg/termite
same,LD50 (95% CL),"colony BS, 24 hours, Worker",2.21 (1.91-2.49) μg/termite
same,LD90 (95% CL),"colony BS, 24 hours, Worker",7.11 (6.14-8.58) μg/termite
same,LD50 (95% CL),"colony BS, 48 hours, Soldier",2.02 (1.49-2.46) μg/termite
same,LD90 (95% CL),"colony BS, 48 hours, Soldier",4.07 (3.37-5.37) μg/termite
same,LD50 (95% CL),"colony BS, 48 hours, Worker",1.74 (1.49-1.96) μg/termite
same,LD90 (95% CL),"colony BS, 48 hours, Worker",4.19 (3.73-4.83) μg/termite
same,LD50 (95% CL),"colony CR, 24 hours, Soldier",3.49 (2.49-4.51) μg/termite
same,LD90 (95% CL),"colony CR, 24 hours, Soldier",8.09 (5.94-16.01) μg/termite
same,LD50 (95% CL),"colony CR, 24 hours, Worker",2.93 (2.24-3.59) μg/termite
same,LD90 (95% CL),"colony CR, 24 hours, Worker",7.23 (5.59-11.34) μg/termite
same,LD50 (95% CL),"colony CR, 48 hours, Soldier",2.02 (1.48-2.48) μg/termite
same,LD90 (95% CL),"colony CR, 48 hours, Soldier",4.26 (3.45-5.92) μg/termite
same,LD50 (95% CL),"colony CR, 48 hours, Worker",2.67 (1.87-3.35) μg/termite
same,LD90 (95% CL),"colony CR, 48 hours, Worker",6.09 (4.85-8.82) μg/termite
same,LD50 (95% CL),"colony E, 24 hours, Soldier",5.12 (3.99-7.24) μg/termite
same,LD90 (95% CL),"colony E, 24 hours, Soldier",14.06 (9.51-19.26) μg/termite
same,LD50 (95% CL),"colony E, 24 hours, Worker",7.24 (5.22-9.36) μg/termite
same,LD90 (95% CL),"colony E, 24 hours, Worker",19.69 (14.02-25.58) μg/termite
same,LD50 (95% CL),"colony E, 48 hours, Soldier",4.19 (3.14-6.20) μg/termite
same,LD90 (95% CL),"colony E, 48 hours, Soldier",12.32 (8.23-15.32) μg/termite
same,LD50 (95% CL),"colony E, 48 hours, Worker",3.82 (2.68-5.83) μg/termite
same,LD90 (95% CL),"colony E, 48 hours, Worker",11.77 (7.66-17.79) μg/termite
same,LD50 (95% CL),"colony WB, 24 hours, Soldier",2.16 (0.56-6.23) μg/termite
same,LD90 (95% CL),"colony WB, 24 hours, Soldier",5.48 (1.42-15.81) μg/termite
same,LD50 (95% CL),"colony WB, 24 hours, Worker",1.75 (0.76-2.76) μg/termite
same,LD90 (95% CL),"colony WB, 24 hours, Worker",6.33 (3.71-12.46) μg/termite
same,LD50 (95% CL),"colony WB, 48 hours, Soldier",2.17 (0.49-5.76) μg/termite
same,LD90 (95% CL),"colony WB, 48 hours, Soldier",5.59 (1.23-14.49) μg/termite
same,LD50 (95% CL),"colony WB, 48 hours, Worker",1.71 (0.42-1.95) μg/termite
same,LD90 (95% CL),"colony WB, 48 hours, Worker",3.09 (2.70-3.72) μg/termite
same,48 h-LD90,"soldiers, range over the four colonies",4.07-12.32 μg/soldier
